{"source": "patent US10653698B2", "about": "“Methods of improving myocardial performance in Fontan patients using udenafil compositions” (priority 2014, dated 2020)", "key": {"ED patients": {"system": "ED patients", "details": "50 mg or 75 mg once daily for 12 wk; cited from earlier work"}, "[1]": {"system": "adolescents with single ventricle physiology after Fontan palliation", "test": "Exercise testing (peak VO2 at maximum effort, VO2 at anaerobic threshold)", "format": "in vivo, human", "details": "for Peak VO2 at Anaerobic Threshold, Baseline measurement / Peak VO2 at Maximum Effort, Baseline measurement: day 1; for Peak VO2 at Anaerobic Threshold, Follow-up measurement / Peak VO2 at Maximum Effort, Follow-up measurement: post-medication, day 5", "source_text": "Exercise testing can include assessment of VO2 values during maximal effort or at anaerobic threshold. VO2 max, or maximal oxygen consumption, refers to the maximum amount of oxygen that an individual can utilize during intense exercise. This measurement is generally considered a reliable indicator of cardiovascular fitness and aerobic endurance. Theoretically, the more oxygen a person can use during high level exercise, the more energy that person can produce. This test is the gold standard for cardiorespiratory fitness because muscles need oxygen for prolonged (aerobic) exercise; blood carries oxygen to the muscles and the heart must pump adequate amounts of blood to meet the demands of aerobic exercise. VO2 is often measured by putting a mask on a subject, and measuring the volume and gas concentrations of inhaled and expired air. This measurement is often used in both clinical settings and research and is considered the most accurate. Testing commonly involves either exercising on a treadmill or riding a bike at increasing intensity until exhaustion, and is designed to provide readings at a maximal effort of the subject and/or at the subject's anaerobic threshold. The purpose of this example was to evaluate the efficacy of the treatment protocol described in Example 1 using various exercise testing parameters. The primary outcome of this arm of the study was maximal VO2 as determined by exercise testing. Table 14 summarizes results for the key outcome from the exercise testing—peak VO2 (limited to the subjects who achieved maximum effort) by treatment group. Out of the 36 subjects enrolled in the trial, 33 reached max effort in the exercise testing at each of the time points, and 31 subjects at both time points. The first two lines present data for baseline and follow-up measurements, while the third line presents differences between the two measurements (change scores, the outcome for this aim). […] An additional outcome, VO2 at anaerobic threshold, was also measured. Similar analyses were performed for this outcome. Overall results are similar to those for maximal VO2."}, "[2]": {"test": "Pharmacokinetic testing, non-compartmental analysis of plasma concentrations", "format": "in vivo, human", "method": "NONMEM version 7.2, R, PDxPOP® 5, Xpose, and Phoenix WinNonlin was used for the pharmacokinetic analysis.\nPharmacokinetic analysis was performed on Fontan patients receiving udenafil. […] Plasma concentrations were determined at various time points and non-compartmental analysis was performed in patients and stratified by dosing regimens."}, "[3]": {"system": "adolescents with single ventricle physiology after Fontan palliation", "format": "in vivo, human", "method": "A Phase I/II dose escalation trial of Udenafil in adolescents with single ventricle physiology after Fontan palliation was conducted. […] The 36 subjects enrolled in the trial were comprised of 6 cohorts, as described in Table 1. The goals for this trial were to assess the safety of udenafil at multiple dose levels over a five-day period, the pharmacokinetic profile of udenafil in adolescents with Fontan physiology, and the short-term effect of udenafil on pharmacodynamic measures of exercise capacity, ventricular performance, and vascular function. Multiple doses of udenafil or a pharmaceutically acceptable salt thereof were administered to male and female Fontan patients who are 14-18 years of age. Inclusion Criteria for the trial were: • Males and females with Fontan physiology who are 14-18 years of age. • Willingness to return to center to complete blood draws and exercise tests as described in the study protocol. • Patients must agree to abstain from alcohol, caffeinated beverages, and grapefruit juice for the duration of the trial. • Informed assent from subject and informed consent from parent/legal guardian as appropriate. […] The purpose of this example was to describe and evaluate the safety of the udenafil compositions administered in the study described in Example 1. Tables 3-6 present numbers of subjects reporting at least one AE; data are presented by treatment group. The counts are presented by AE category (Table 3) and by preferred term (Table 6). Tables 3-6 report all AEs by category (Table 3), serious AEs (Table 4), non-serious AEs (Table 5), and all AEs by preferred term (Table 6). […] Tables 9-12 present AEs by preferred term (similar to Table 6), but additionally report the number of subjects with an AE and the number of AEs (Table 9), the number of AE events/subjects grouped by treatment group and by related (including possibly or probably) vs. not related to the study drug (Table 10), mild vs. moderate/severe (Table 11), and expected vs. unexpected AEs (Table 12)."}, "[4]": {"details": "87.5 mg q12 h and 125 mg q24 h cohorts compared to 37.5 mg q12 h or q24 h cohorts"}}, "note": "Read-outs that look alike come from different tables or passages of the source.", "data": [{"smiles": "CCCOc1ccc(S(=O)(=O)NCCC2CCCN2C)cc1-c1nc2c(CCC)nn(C)c2c(=O)[nH]1", "note": "(centres unmarked) [udenafil]", "values": [{"measurement": "erectile function", "setting": "ED patients", "result": "significantly improved"}, {"measurement": "Peak VO2 at Anaerobic Threshold, Difference, FU − BL", "setting": "[1]; 37.5 mg daily", "result": "-0.5 ± 4.1", "unit": "mL/min/kg"}, {"measurement": "Peak VO2 at Maximum Effort, Difference, FU − BL", "setting": "[1]; 37.5 mg daily", "result": "-0.8 ± 1.7", "unit": "mL/min/kg"}, {"measurement": "Peak VO2 at Anaerobic Threshold, Baseline measurement", "setting": "[1]; 37.5 mg daily", "result": "17.2 ± 5.0", "unit": "mL/min/kg"}, {"measurement": "Peak VO2 at Maximum Effort, Baseline measurement", "setting": "[1]; 37.5 mg daily", "result": "24.6 ± 6.9", "unit": "mL/min/kg"}, {"measurement": "Peak VO2 at Anaerobic Threshold, Follow-up measurement", "setting": "[1]; 37.5 mg daily", "result": "16.3 ± 2.0", "unit": "mL/min/kg"}, {"measurement": "Peak VO2 at Maximum Effort, Follow-up measurement", "setting": "[1]; 37.5 mg daily", "result": "24.7 ± 6.7", "unit": "mL/min/kg"}, {"measurement": "Peak VO2 at Anaerobic Threshold, Difference, FU − BL", "setting": "[1]; 37.5 mg twice daily", "result": "0.1 ± 1.0", "unit": "mL/min/kg"}, {"measurement": "Peak VO2 at Maximum Effort, Difference, FU − BL", "setting": "[1]; 37.5 mg twice daily", "result": "-1.6 ± 5.1", "unit": "mL/min/kg"}, {"measurement": "Peak VO2 at Anaerobic Threshold, Baseline measurement", "setting": "[1]; 37.5 mg twice daily", "result": "18.0 ± 3.0", "unit": "mL/min/kg"}, {"measurement": "Peak VO2 at Maximum Effort, Baseline measurement", "setting": "[1]; 37.5 mg twice daily", "result": "30.4 ± 6.2", "unit": "mL/min/kg"}, {"measurement": "Peak VO2 at Anaerobic Threshold, Follow-up measurement", "setting": "[1]; 37.5 mg twice daily", "result": "18.1 ± 3.0", "unit": "mL/min/kg"}, {"measurement": "Peak VO2 at Maximum Effort, Follow-up measurement", "setting": "[1]; 37.5 mg twice daily", "result": "28.8 ± 8.1", "unit": "mL/min/kg"}, {"measurement": "Peak VO2 at Anaerobic Threshold, Difference, FU − BL", "setting": "[1]; 87.5 mg daily", "result": "-1.1 ± 1.9", "unit": "mL/min/kg"}, {"measurement": "Peak VO2 at Maximum Effort, Difference, FU − BL", "setting": "[1]; 87.5 mg daily", "result": "-1.4 ± 2.5", "unit": "mL/min/kg"}, {"measurement": "Peak VO2 at Anaerobic Threshold, Baseline measurement", "setting": "[1]; 87.5 mg daily", "result": "17.6 ± 5.3", "unit": "mL/min/kg"}, {"measurement": "Peak VO2 at Maximum Effort, Baseline measurement", "setting": "[1]; 87.5 mg daily", "result": "28.4 ± 6.2", "unit": "mL/min/kg"}, {"measurement": "Peak VO2 at Anaerobic Threshold, Follow-up measurement", "setting": "[1]; 87.5 mg daily", "result": "16.5 ± 4.8", "unit": "mL/min/kg"}, {"measurement": "Peak VO2 at Maximum Effort, Follow-up measurement", "setting": "[1]; 87.5 mg daily", "result": "27.1 ± 5.0", "unit": "mL/min/kg"}, {"measurement": "Peak VO2 at Anaerobic Threshold, Difference, FU − BL", "setting": "[1]; 87.5 mg twice daily", "result": "-1.7 ± 2.1", "unit": "mL/min/kg"}, {"measurement": "Peak VO2 at Maximum Effort, Difference, FU − BL", "setting": "[1]; 87.5 mg twice daily", "result": "0.2 ± 5.0", "unit": "mL/min/kg"}, {"measurement": "Peak VO2 at Anaerobic Threshold, Baseline measurement", "setting": "[1]; 87.5 mg twice daily", "result": "18.3 ± 4.6", "unit": "mL/min/kg"}, {"measurement": "Peak VO2 at Maximum Effort, Baseline measurement", "setting": "[1]; 87.5 mg twice daily", "result": "28.0 ± 5.2", "unit": "mL/min/kg"}, {"measurement": "Peak VO2 at Anaerobic Threshold, Follow-up measurement", "setting": "[1]; 87.5 mg twice daily", "result": "16.5 ± 5.2", "unit": "mL/min/kg"}, {"measurement": "Peak VO2 at Maximum Effort, Follow-up measurement", "setting": "[1]; 87.5 mg twice daily", "result": "28.2 ± 6.0", "unit": "mL/min/kg"}, {"measurement": "Peak VO2 at Anaerobic Threshold, Difference, FU − BL", "setting": "[1]; 125 mg daily", "result": "1.2 ± 1.9", "unit": "mL/min/kg"}, {"measurement": "Peak VO2 at Maximum Effort, Difference, FU − BL", "setting": "[1]; 125 mg daily", "result": "0.9 ± 2.6", "unit": "mL/min/kg"}, {"measurement": "Peak VO2 at Anaerobic Threshold, Baseline measurement", "setting": "[1]; 125 mg daily", "result": "18.8 ± 1.8", "unit": "mL/min/kg"}, {"measurement": "Peak VO2 at Maximum Effort, Baseline measurement", "setting": "[1]; 125 mg daily", "result": "28.6 ± 3.0", "unit": "mL/min/kg"}, {"measurement": "Peak VO2 at Anaerobic Threshold, Follow-up measurement", "setting": "[1]; 125 mg daily", "result": "20.0 ± 3.2", "unit": "mL/min/kg"}, {"measurement": "Peak VO2 at Maximum Effort, Follow-up measurement", "setting": "[1]; 125 mg daily", "result": "28.6 ± 3.8", "unit": "mL/min/kg"}, {"measurement": "AUCτ", "setting": "[2]; [4]", "result": "significantly increased"}, {"measurement": "Cmax", "setting": "[2]; [4]", "result": "significantly increased"}, {"measurement": "AUC0-24", "setting": "[2]; 87.5 mg q12 h cohort among all regimens tested", "result": "highest"}, {"measurement": "Cmax", "setting": "[2]; 87.5 mg q12 h cohort compared to its q24 h counterpart", "result": "increased"}, {"measurement": "AUC0-24", "setting": "[2]; 125 mg q24 h cohort compared to 37.5 mg q24 h cohort", "result": "significantly increased"}, {"measurement": "ke, T1/2, or Tmax", "setting": "[2]; among all 5 tested dosing regimens", "result": "no statistically significant difference"}, {"measurement": "CL/F or V/F", "setting": "[2]; among dosing regimens, except between 37.5 mg q24 h and 87.5 mg q12 h", "result": "No significant difference"}, {"measurement": "AE category: Musculoskeletal/skin", "setting": "[3]; 37.5 mg daily", "result": "1 (17%) n (%)"}, {"measurement": "AE category: Musculoskeletal/skin", "setting": "[3]; 37.5 mg twice daily", "result": "1 (17%) n (%)"}, {"measurement": "AE category: Musculoskeletal/skin", "setting": "[3]; 87.5 mg daily", "result": "1 (17%) n (%)"}, {"measurement": "AE category: Musculoskeletal/skin", "setting": "[3]; 87.5 mg twice daily", "result": "2 (33%) n (%)"}, {"measurement": "AE category: Musculoskeletal/skin", "setting": "[3]; 125 mg daily", "result": "2 (33%) n (%)"}, {"measurement": "subjects who had expected adverse events", "setting": "[3]; both, human, in vivo, 5 day", "result": 27}, {"measurement": "subjects who had unexpected adverse events", "setting": "[3]; both, human, in vivo, 5 day", "result": 18}, {"measurement": "Subjects with adverse events possibly related to the study drug", "setting": "[3]; both, human, in vivo, 5 days", "result": 21, "unit": "subjects"}, {"measurement": "Subjects with adverse events probably related to the study drug", "setting": "[3]; both, human, in vivo, 5 days", "result": 11, "unit": "subjects"}, {"measurement": "Subjects with adverse events related to the study drug", "setting": "[3]; both, human, in vivo, 5 days", "result": "none"}, {"measurement": "Subjects with adverse events unrelated to the study drug", "setting": "[3]; both, human, in vivo, 5 days", "result": 17, "unit": "subjects"}, {"measurement": "subjects who had a severe adverse event", "setting": "[3]; both, human, in vivo, 5 days", "result": 1}, {"measurement": "subjects who had mild adverse events", "setting": "[3]; both, human, in vivo, 5 days", "result": 27}, {"measurement": "subjects who had moderate adverse events", "setting": "[3]; both, human, in vivo, 5 days", "result": 13}, {"measurement": "Serious adverse events", "setting": "[3]; in vivo", "result": "No serious AEs were reported"}]}]}
